Laboratory results as given in publication PMC7610391, “Photocatalytic proximity labelling of MCL-1 by a BH3 ligand” (Communications chemistry, 2019).
Entries after “also recorded” stand apart in the source; their conditions may differ.

What was measured:
MCL-1 [1] = biological target: T1, MCL-1 (Homo sapiens, UniProt Q07820); experiment: Photolabelling of recombinant MCL-1, ESI-MS
T1 construct: Recombinant MCL-1_172–327 was expressed and purified as published previously; made in house

BCL-XL = biological target: T2, BCL-XL (Homo sapiens, UniProt Q07817, DEL27-82); experiment: Photolabelling of BCL-xL with Ac-RTA 4, ESI-MS; details: pH 7.4
T2 construct: made in house
T2 sequence (Q07817 with tags, fused parts or gaps DEL27-82, species assumed): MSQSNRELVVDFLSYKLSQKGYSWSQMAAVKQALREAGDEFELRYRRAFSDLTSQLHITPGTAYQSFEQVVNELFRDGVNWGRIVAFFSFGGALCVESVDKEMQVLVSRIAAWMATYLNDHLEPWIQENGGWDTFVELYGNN

MCL-1 [2] = biological target: T1, MCL-1; experiment: Competition of Ru(II)(bpy)3-NOXA-B 1-mediated MCL-1 photolabelling, in-gel fluorescence; assay type: biochemical; details: 0-100 µM competitor; 5 µM MCL-1, 5 µM TAMRA-RTA 2, 1 µM 1, 10 µM APS, 1 min hν
[3] = biological target: T3, MCL-1/FITC-NOXA-B interaction (Homo sapiens, UniProt Q07820); experiment: Fluorescence anisotropy competition, MCL-1/FITC-NOXA-B; assay type: biochemical; details: [MCL-1] 75 nM, tracer FITC-NOXA-B 25 nM, Tris buffer pH 7.4, triplicate; printed as ≫; read-out: IC50 against MCL-1
T3 construct: Recombinant MCL-1_172–327 was expressed and purified as published previously; made in house
T3 sequence (Q07820 172-327): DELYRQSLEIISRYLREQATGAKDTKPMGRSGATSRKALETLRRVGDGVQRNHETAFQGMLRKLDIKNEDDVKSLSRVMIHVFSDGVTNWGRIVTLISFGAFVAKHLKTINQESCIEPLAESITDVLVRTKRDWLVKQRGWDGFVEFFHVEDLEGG

MCL-1 [4] = biological target: T1, MCL-1; experiment: Pull-down of biotinylated MCL-1 with avidin-agarose beads; details: 20, 10 µM biotin-RTA 3, or 100 µM with excess label removed
Procedure: Pull-down of biotinylated MCL-1
The crude labelling mixture was incubated with avadin-agarose beads (50 µL) at r.t. for 2 hours with gentle agitation (input lanes 1-4 and their respective pull-down lanes 6-9). Note that for input lane 5/pull-down lane 10, excess biotin-RTA 3 was removed from the crude labelling mixture using a protein concentrator (10 kDa MWCO) prior to incubation with avidin-agarose beads. Following removal of the supernatant, the beads were washed twice with PBS (100 µL), then boiled at 90 °C for 10 mins in sample loading buffer to elute bound proteins. Samples were separated by SDS-PAGE: the gel (15% acrylamide) was run at a constant voltage of 180 V for 45 min, then the gel was stained with Coomassie Brilliant Blue (CBB) and the image obtained on a Molecular Imager ChemiDoc XRS.
Supplementary Figure 19: Isolation of biotinylated MCL-1 from crude labelling mixture through pull-down with avadin-agarose beads (CBB stained gel). Conditions: 5 µM MCL-1, 0-100 µM biotin-RTA 3, 1 µM Ru(II)(bpy)3-NOXA-B, 10 µM APS, 1 min irradiation, 50 mM […]
3 was used (lanes 7 and 8, respectively), in addition to when 100 µM biotin-RTA 3 was used and the excess label 3 was removed using a protein concentrator (lane 10). 50 µL avidin-agarose beads was used in pull-down experiments.

T1 sequence (Q07820 172-327): as above

Molecule: [Ru+2].c1ccc(-c2ccccn2)nc1.c1ccc(-c2ccccn2)nc1.c1ccc(-c2ccccn2)nc1 [Ru(II)(bpy)3]
- photolabelling efficiency of MCL-1 versus targeted catalyst 1 (MCL-1 [1]; 20 mol% Ru(II)(bpy)3, 50 μM Ac-RTA 4, 10 μM APS, 1 min irradiation, pH 7.4): labelling was less efficient
- effect of photocatalyst concentration on BCL-xL labelling (BCL-XL): increased at higher concentrations of Ru(II)(bpy)3
- labelling of BCL-xL with Ac-RTA 4 (BCL-XL): small amounts of BCL-xL could be labelled

Molecule: CC[C@H](C)[C@H](NC(=O)[C@H](CCCNC(=N)N)NC(=O)[C@H](CCCNC(=N)N)NC(=O)[C@H](CC(C)C)NC(=O)[C@H](CCC(N)=O)NC(=O)[C@H](C)NC(=O)[C@H](C)NC(C)=O)C(=O)NCC(=O)N[C@@H](CC(=O)O)C(=O)N[C@@H](CCCCN)C(=O)N[C@H](C(=O)N[C@@H](CC(N)=O)C(=O)N[C@@H](CC(C)C)C(=O)N[C@@H](CCCNC(=N)N)C(=O)N[C@@H](CCC(N)=O)C(=O)N[C@@H](CCCCN)C(=O)N[C@@H](CC(C)C)C(=O)N[C@@H](CC(C)C)C(=O)N[C@@H](CC(N)=O)C(N)=O)C(C)C [compound 5]
- inhibition of MCL-1 labelling by Ac-NOXA-B (MCL-1 [2]): did not completely abrogate labelling

Molecule: 6b: variant Ac-BID sequence with key hot-spot residues exchanged (L90A and D95R) (EDIIRNIARHAAQVGRSXDRSIW; N-terminal acetyl; C-terminal amide; X18 = norleucine (Nle))
- IC50 [3]: > 50 µM

Molecule: CN(C)c1ccc(NC(=O)CCCCCNC(=O)CCCCC2SCC3NC(=O)NC32)cc1 (stereo not drawn) [compound 3]
- background labelling with biotin-RTA 3 in the absence of 1 (MCL-1 [1]; 0 µM 1, 5 μM MCL-1, 5 µM biotin-RTA 3, 10 µM APS, 1 min hν): absence of background labelling
- number of labels incorporated on MCL-1 (MCL-1 [1]; Ru(II)(bpy)3-NOXA-B 1-mediated, intact protein ESI-MS): single biotin labelling of MCL-1
- oxidation at irradiation times greater than 1 min (MCL-1 [1]; biotin-RTA 3 5 µM, 1 µM 1, 10 µM APS, 15 mins irradiation shown): higher conversion to oxidised protein species
- affinity purification of biotinylated MCL-1 (MCL-1 [4]): Biotinylated MCL-1 was pulled-down; also recorded: could be affinity-purified with avidin-agarose beads
